“Also recorded” adds a separate entry of the source. Marks after values point to notes of the source that are not given here.
Experiments:
[1] = system: leukemic stem cells (LSCs); assay: Secondary transplantation without limiting dilution; assay type: in vivo, NOD/SCID mice
Procedure: (§1) For secondary transplant NOD/SCID mice were sublethally irradiated (275 cGy) and pretreated with anti-CD122 antibody (200 μg/mouse) to deplete residual host natural killer cells. On the day of transplantation, viably frozen cells harvested from the vehicle- or Compound D-treated primary mice were thawed, counted, mouse-cell depleted (Mouse Cell Depletion Kit, Miltenyi Biotec, USA), and transplanted intrafemorally into the pretreated secondary mice at limiting doses described above. For secondary transplant without LDA, thawed cells were not depleted of mouse cells before transplantation. At 12 weeks post secondary transplantation, mice were euthanized, and bone marrow was collected and analyzed.
To determine if quiescent LSCs are resistant to Compound D, secondary transplantation of AML cells of high responders was performed. High responders were identified as samples in which leukemia cells were almost undetectable in the primary mouse bone marrow following Compound D treatment. If rare quiescent LSCs are maintained in the residual leukemia cells following Compound D dosing, then those quiescent LSCs may become active and repopulate secondary mice after undergoing serial transplantations. Four LSC17 high samples that had AML blasts eradicated by Compound D treatment were selected for secondary transplantation (see Table 9) by injecting total combined bone marrow cells collected from 5 primary mice treated with either vehicle or Compound D into 5 secondary mice. In this way cells collected from one primary mouse were injected into one secondary mouse without any cell dose dilution or losing any residual cells. […] Cells from AML Patient 150238 harvested from vehicle-treated primary mice repopulated only one of 5 secondary mice.

[2] = system: leukemic stem cells (LSCs); assay: Secondary xenograft limiting dilution assay (LDA); assay type: in vivo, NOD/SCID mice; conditions: for Fold reduction of LSC frequency by Compound D: relative to vehicle; for No. mice engrafted/No. mice transplanted: from Compound D-treated primary mice
Procedure: Secondary xenograft limiting dilution assay: To determine whether Compound D targeted leukemia stem cells with self-renewal ability, which are considered to contribute to leukemia progression, therapy-resistance, and relapse, secondary transplantation was performed using LDA. Limiting dilution assays are designed to define an unknown frequency of LSCs in the total leukemia graft of primary mice. LDA analysis in secondary transplantation will allow quantitative determination whether Compound D targets LSCs with self-renewal ability in primary mice. For this, multiple cell doses were used for secondary transplant to achieve both a positive response (engrafted mice at high cell doses) and a negative response (non-engrafted mice at lowest cell dose). Four different AML cell doses for each treated group (1 million, 500,000, 50,000 and 2000 cells/mouse) with 5 mice per cell dose, totally 40 mice for each AML graft sample. For any sample that was considered aggressive, LDA was performed with lower cell doses. The frequency of LSCs was analyzed using the Walter and Eliza Hall Institute (WEHI) bioinformatics extreme limiting dilution analysis (ELDA) software (bioinf.wehi.edu.au).
as §1
Limiting dilution assay: Limiting dilution assays were used to define the frequency of leukemia stem cells in the total leukemia graft of the primary mice. Therefore, analysis of LDA in secondary transplantation will allow quantitative determination whether Compound D targets leukemia stem cells with self-renewal ability in primary mice. For this, multiple cell doses were used for secondary transplant to achieve both a positive response (engrafted mice at high cell doses) and a negative response (non-engrafted mice at lowest cell dose). Four different AML cell doses for each treated group were used (1 million, 500,000, 50,000 and 2000 cells/mouse) with 5 mice per cell dose, totally 40 mice for each leukemia graft sample. For any sample that was considered aggressive, LDA was performed with lower cell doses. The frequency of LSCs was analyzed using the Walter and Eliza Hall Institute (WEHI) bioinformatics extreme limiting dilution analysis (ELDA) software (bioinfwehi.edu.au).
Intrafemoral transplantation: One day prior to transplantation, NOD/SCID mice were sublethally irradiated (275 cGy) and pretreated with anti-CD122 antibody (200m/mouse) to deplete residual host natural killer cells. On the day of transplantation, viably frozen cells harvested from combined vehicle- or Compound D-treated (2.5 mg/kg intraperitoneally twice daily for 14 days, Section 6.1) primary mice were thawed, counted, mouse cell depleted, and transplanted intrafemorally into the pretreated secondary mice at limiting doses in a total volume of 30 μl. For the Compound D-treated samples with low human AML engraftment 25%), cells from both RF and BM were combined and 2 rounds of mouse depletion were performed to ensure a high human AML cell purity. […] Mouse cell depletion was performed following the instructions provided by Miltenyi Biotec (Mouse Cell Depletion Kit, catalogue number 130-104-694, Miltenyi Biotec, Germany). […]

O=C1CCC(N2Cc3cc(CNC(=O)C(F)(F)c4ccc(Cl)cc4)ccc3C2=O)C(=O)N1 (centres unmarked) [Compound D, 2-(4-chlorophenyl)-N-((2-(2,6-dioxopiperidin-3-yl)-1-oxoisoindolin-5-yl)methyl)-2,2-difluoroacetamide]
repopulation of secondary mice ([1]; AML 0590 and AML 110102, cells from Compound D-treated primary mice): did not repopulate the secondary mice
LSC Status in Secondary Mice Injected with Compound D Treated Primary Cells ([1]; Patient 110625): repopulated the bone marrow of one secondary mouse; also recorded: LSC in BM
No. mice with LSC engrafted/No. injected mice in the group ([1]; Patient 110625, cells from Compound D-treated primary mice): 1/5 (in BM
LSC Status in Secondary Mice Injected with Compound D Treated Primary Cells ([1]; Patient 130311): did not proliferate/repopulate any of the secondary mice; also recorded: not engrafted
No. mice with LSC engrafted/No. injected mice in the group ([1]; Patient 130311, cells from Compound D-treated primary mice): 0/4
LSC Status in Secondary Mice Injected with Compound D Treated Primary Cells ([1]; Patient 130826): did not proliferate/repopulate any of the secondary mice; also recorded: not engrafted
No. mice with LSC engrafted/No. injected mice in the group ([1]; Patient 130826, cells from Compound D-treated primary mice): 0/5
LSC Status in Secondary Mice Injected with Compound D Treated Primary Cells ([1]; Patient 150238): did not repopulate any secondary mice; also recorded: no LSC
No. mice with LSC engrafted/No. injected mice in the group ([1]; Patient 150238, cells from Compound D-treated primary mice): 0/5
AML engraftment in secondary mice ([2]; AML 90191, cells from Compound D primary-treated mice, about 12 weeks): no AML engraftment
leukemia graft in secondary mice vs vehicle-treated cells ([2]; AML 110500): much lower leukemia graft
LSC frequency, vehicle- vs Compound D-treated primary mice ([2]; AML 120860, non-injected BM data): no difference in LSC frequency; also recorded: no difference for LSC frequency
LSC frequency increase following treatment ([2]; AML Patient 110484): 1.6 fold
LSC frequency increase following treatment ([2]; AML Patient 120846): 1.8 fold
LSC frequency increase following treatment ([2]; AML Patient 120860): 1.3 fold
LSC frequency increase following treatment ([2]; AML Patient 130695): 12.6 fold
LSC frequency ([2]; AML Patient 130926 (responder)): did not reduce LSC frequency
LSC frequency (1/total number), Compound D ([2]; Patient 598, cells from RF of treated primary mice): 675569 1/total number
Fold reduction of LSC frequency by Compound D ([2]; Patient 598): 2.1 fold
LSC frequency (1/total number), Compound D ([2]; Patient 90191, cells from RF + BM of treated primary mice): Not engrafted
LSC frequency (1/total number), Compound D ([2]; Patient 100348, cells from RF + BM of treated primary mice): 923814 1/total number
Fold reduction of LSC frequency by Compound D ([2]; Patient 100348): 4.0 fold
LSC frequency (1/total number), Compound D ([2]; Patient 110484, cells from RF of treated primary mice): 1153831 1/total number
Fold reduction of LSC frequency by Compound D ([2]; Patient 110484, negative sign = increase): −1.6 ^a fold
LSC frequency (1/total number), Compound D ([2]; Patient 110500, cells from RF of treated primary mice): 356239 1/total number
LSC frequency (1/total number), Compound D ([2]; Patient 120791, cells from RF + BM of treated primary mice): Not engrafted
LSC frequency (1/total number), Compound D ([2]; Patient 120846, cells from RF of treated primary mice): 14523 1/total number
Fold reduction of LSC frequency by Compound D ([2]; Patient 120846, negative sign = increase): −1.8 ^a fold
LSC frequency (1/total number), Compound D ([2]; Patient 120860, cells from BM of treated primary mice): 65626 1/total number
Fold reduction of LSC frequency by Compound D ([2]; Patient 120860, negative sign = increase): −1.3 ^a fold
LSC frequency (1/total number), Compound D ([2]; Patient 120899, cells from BM of treated primary mice): 27120 1/total number
Fold reduction of LSC frequency by Compound D ([2]; Patient 120899): 4.0 fold
LSC frequency (1/total number), Compound D ([2]; Patient 121020, cells from RF+BM of treated primary mice): 7562084 1/total number
Fold reduction of LSC frequency by Compound D ([2]; Patient 121020): 1.5 fold
No. mice engrafted/No. mice transplanted ([2]; Patient 130578, 5000 cells transplanted/mouse): 0/5
No. mice engrafted/No. mice transplanted ([2]; Patient 130578, 20000 cells transplanted/mouse): 0/5
No. mice engrafted/No. mice transplanted ([2]; Patient 130578, 50000 cells transplanted/mouse): 2/5
No. mice engrafted/No. mice transplanted ([2]; Patient 130578, 120000 cells transplanted/mouse): 2/3
Fold reduction of LSC frequency by Compound D ([2]; Patient 130578): 9.4 fold
LSC frequency (1/total number), Compound D ([2]; Patient 130695, cells from RF of treated primary mice): 36696 1/total number
Fold reduction of LSC frequency by Compound D ([2]; Patient 130695, negative sign = increase): −12.6*** ^a fold
LSC frequency (1/total number), Compound D ([2]; Patient 130712, cells from BM of treated primary mice): 758064 1/total number
Fold reduction of LSC frequency by Compound D ([2]; Patient 130712): 2.7 fold
LSC frequency (1/total number), Compound D ([2]; Patient 130926, cells from RF + BM of treated primary mice): 1207241 1/total number
Fold reduction of LSC frequency by Compound D ([2]; Patient 130926): 1.0 fold
LSC frequency (1/total number), Compound D ([2]; Patient 140171, cells from RF + BM of treated primary mice): Not engrafted
responsive leukemia samples with LSCs targeted ([2]; mouse, in vivo): 6 out of 10 samples

Reference: patent publication US20220378773A1, “METHODS FOR TREATING LEUKEMIA AND USE OF A LEUKEMIC STEM CELL SIGNATURE TO PREDICT CLINICAL SENSITIVITY TO THERAPIES” (CELGENE CORPORATION, priority 2019, published 2022)
